Measurements published in US7531500B2, “Preventing airway mucus production by administration of EGF-R antagonists” (The Regents of the University of California, priority 1998, dated 2009).

Columns and labels:
NCI-H292 cells [1] = experiment: Alcian blue/PAS staining of NCI-H292 cells for mucin glycoproteins; assay type: cell-based, human; settings: TNFα 20 ng/ml; EGF, TGFα each 25 ng/ml
Procedure: (§1) Cell culture. A human pulmonary mucoepidermoid carcinoma cell line, NCI-H292 cells, were grown in RPMI11640 medium containing 10% fetal bovine serum, penicillin (100 U/ml), streptomycin (100 μg/ml) at 37° C. in a humidified 5% CO2 water-jacketed incubator. […] In inhibition studies with an EGF-R tyrosine kinase inhibitor, BIBX1522 (10 μg/ml, generously provided by Boehringer Ingelheim Inc., Ingelheim, Germany), cells were pretreated with BIBX1522 30 min before adding growth factors. After incubation, cells grown in a T-75 flask were used for total RNA extraction or protein extraction, and 8-chamber slides were used for Alcian blue/PAS-staining to visualize mucins.

NCI-H292 cells [2] = experiment: Northern analysis for MUC5 gene expression in NCI-H292 cells; assay type: cell-based, human; settings: EGF or TGFα 25 ng/ml, TNFα 20 ng/ml; 12 h, 24 h
Procedure: as §1

pathogen-free rats = experiment: Goblet cell production in pathogen-free rats after tracheal instillation of TNFα and EGF-R ligands; assay type: in vivo, rat; settings: intratracheal 600 ng, alone
Procedure: Healthy rats. Rats were anesthetized with methohexital sodium (Brevital sodium, 50 mg/kg, i.p.; Eli Lilly & Co., Indianapolis, Ind.) and allowed to breathe spontaneously. […] In each study, sterile PBS (100 μl) was instilled into the trachea as control. […] Rats were pretreated with BIBX1522 (3, 10 or 30 mg/kg, i.p.), 1 h before and 24 h after instillation of TGFα. The trachea and lungs were removed for examination 48 h after the instillation of TGFα.
Tissue preparation. At preselected times during anesthesia, the systemic circulation was perfused with 1% paraformaldehyde in DEPC-treated PBS at a pressure of 120 mmHg. The trachea was then removed and placed in 4% paraformaldehyde for 24 h. After fixation, trachea and lungs were embedded in either JB-4 plus monomer solution A for cell analysis or O.C.T. compound (Sakura Finetek U.S.A., Inc., Torrance, Calif.) for immunohistochemistry and in situ hybridization. The embedded tissues were cut as cross sections ([…] thick) and placed on slides.
Cell analysis. We counted the total number of epithelial cells by counting epithelial cell nuclei over 2 mm of the basal lamina with an oil immersion objective lens (×1000 magnification). The linear length of the basal lamina under each analyzed region of epithelium was determined by tracing the contour of the digitized image of the basal lamina. After instillation of stimuli, “developing” goblet cells form. These cells have Alcian blue/PAS-positive granules, but the size of granules is small, and the number of cytoplasmic granules is few. We call these “developing” goblet cells “pre-goblet cells”, a stage before cells become mature goblet cells. Goblet cells are tall, cuboidal, goblet to low columnar in shape, with abundant Alcian blue/PAS-stained granules filling most of the cytoplasm between the nucleus and the luminal surface. Pre-goblet cells are defined as cells with smaller mucus-stained areas (<1/3 height in epithelium from basement membrane to luminal surface) or with sparsely and lightly Alcian blue/PAS-stained, small granules. Ciliated cells are recognized by their ciliated borders, lightly stained cytoplasm, and large round nuclei. Non-granulated secretory cells are columnar in shape and extend from the lumen to the basal lamina. The cytoplasm stains light pink color, and a few tiny PAS-positive and Alcian blue-negative granules are observed in the cytoplasm. Basal cells are small flattened cells with a large nucleus, located just above the basal lamina but not reaching the airway lumen.
Quantification of goblet cell production. Goblet cell production, was determined by the volume density of Alcian blue/PAS-stained mucosubstances on the mucosal surface epithelium using a semi-automatic imaging system described elsewhere (Weber et al. (1984) Science 224:294-297). We measured the Alcian blue/PAS-positive stained area and the total epithelial area and expressed the data as the percentage of the total area stained by Alcian blue-PAS. The analysis was performed with the public domain NIH Image program (developed at the U.S. National Institute of Health and available from the Internet by anonymous FTP from zippy.nimh.gov or on floppy disk from the National Technical Information Service, Springfield, Va., part number PB95-500195GEI).
Immunohistochemical localization of EGF-R in rat epithelium. The localization of EGF-R was examined using immunchistochemical staining with an antibody to EGF-R (Calbiochem, San Diego, Calif.) in frozen sections of rat trachea. After perfusion with 1% paraformaldehyde in PBS, tissues were placed in 4% paraformaldehyde in PBS for 1 h and then removed in 30% sucrose for cryoprotection overnight. Tracheas were embedded in O.C.T. compound (Sakura Finetek U.S.A., Inc., Torrance, Calif.) and frozen. Frozen sections (5 μm) were cut and placed on glass slides (Superfrost Plus, Fisher Scientific, Pittsburgh, Pa.). Immunostaining was performed similarly to the in vitro studies.

NCI-H292 cells [3] = experiment: Immunoassay of MUC5AC protein in NCI-H292 cells (Example 2); assay type: cell-based, human
Procedure: Cell Culture. NCI-H292 cells, a human pulmonary mucoepidermoid carcinoma cell line, were grown in RPMI 1640 medium containing 10% fetal bovine serum, penicillin (100 U/ml), streptomycin (100 μg/ml) and Hepes (25 mM) at 37° C. in a humidified 5% CO2, water-jacketed incubator. Either 6-well culture plates or 8-chamber slides were used to culture the cells. […] The cells were then washed and incubated with fresh medium alone. Experiments were terminated at preselected times (for mRNA, 6 h and 12 h; for protein, 24 h). As controls, cells were incubated with medium alone for same time periods. […] In inhibition studies with blocking antibodies to EGF-R ligands, the supernatants were pretreated with anti-TGFα antibody (Calbiochem) or anti-EGF antibody for 30 min and then added to NCI-H292 cells. The role of oxygen free radicals was examined using scavengers of oxygen free radical DMSO (1%, Sigma), 1,3-dimethyl-2-thiourea (DMTU, 50 mM, Sigma), or superoxide dismutase (SOD, 300 U/ml, Sigma).
Preparation of Cigarette Smoke Solution. Research cigarettes (code2R1, produced for the University of Kentucky Tobacco and Health Research Foundation) were used in the study. Cigarette smoke solution was prepared as previously described (Dusser et al. (1989) J. Clin. Invest. 84:900-906). In brief, cigarette smoke was withdrawn into a polypropylene syringe (35 ml) at a rate of one puff/min (10 times) and bubbled slowly into 20 ml of RPM11640 containing 50 mM Hepes buffer. The smoke solution was then titrated to pH 7,4 and used immediately after preparation.
Immunoassay of MUC5AC Protein. MUC5AC protein was measured as described above. In brief, cell lysates were prepared with PBS at multiple dilutions, and 50 μl of each sample was incubated with bicarbonate-carbonate buffer (50 μl) at 40° C. in a 96-well plate (Maxisorp Nunc, Fisher Scientific, Santa Clara, Calif.), until dry. Plates were washed three times with PBS and blocked with 2% BSA (fraction V, Sigma) for 1 h at room temperature. Plates were again washed three times with PBS and then incubated with 50 μl of mouse monoclonal MUC5AC antibody (1:100) that was diluted with PBS containing 0.05% Tween 20. After 1 h, the wells were washed three times with PBS, and 100 μl horseradish peroxidase-goat anti-mouse IgG conjugate (1:10,000, Sigma) was dispensed into each well. After 1 h, plates were washed three times with PBS. Color reaction was developed with TMB peroxidase solution (Kirkegaard & Perry Laboratories, Gaithersburg, Md.) and stopped with 2N H2SO4. Absorbance was read at 450 nm.

NCI-H292 cells [4] = experiment: In situ hybridization for MUC5AC gene in NCI-H292 cells (Example 2); assay type: cell-based, human; settings: within 12 h
Procedure: Cell Culture. NCI-H292 cells, a human pulmonary mucoepidermoid carcinoma cell line, were grown in RPMI 1640 medium containing 10% fetal bovine serum, penicillin (100 U/ml), streptomycin (100 μg/ml) and Hepes (25 mM) at 37° C. in a humidified 5% CO2, water-jacketed incubator. Either 6-well culture plates or 8-chamber slides were used to culture the cells. When confluent, cells were incubated for 1 h with neutrophils (10^6 cells/ml) alone, TNFα alone (recombinant human TNFα, 20 ng/ml, Genzyme, Cambridge, Mass.), IL-8 (recombinant human IL-8, 10^−8 M, Genzyme) alone, fMLP (10^−8 M, Sigma, St. Louis, Mo.) alone, TNFα plus neutrophils, IL-8 plus neutrophils, fMLP plus neutrophils, hydrogen peroxide (H2O2, 200 μM), cigarette smoke solution or TGFα (recombinant human TGFα, 0.1-25 ng/ml, Calbiochem, San Diego, Calif.). The cells were then washed and incubated with fresh medium alone. Experiments were terminated at preselected times (for mRNA, 6 h and 12 h; for protein, 24 h). As controls, cells were incubated with medium alone for same time periods. […] NCI-H292 cells were incubated for 1 h with either neutrophils that had been incubated with TNFα (20 ng/ml) for 1 h and then washed with sterile PBS to avoid contamination with the supernatant (e.g., molecules released from neutrophils), or the NCI-H292 cells were incubated with supernatant only. […]

EGFR = EGFR (Homo sapiens, UniProt P00533); experiment: Immunoprecipitation of EGF-R and immunoblotting for tyrosine phosphorylation in NCI-H292 cells; assay type: cell-based; parameters: These cells express EGF-R constitutively; endogenous in cells; host or cells: NCI-H292 (human pulmonary mucoepidermoid carcinoma); settings: within 15 min of stimulus
EGFR, sequence (P00533 25-1210): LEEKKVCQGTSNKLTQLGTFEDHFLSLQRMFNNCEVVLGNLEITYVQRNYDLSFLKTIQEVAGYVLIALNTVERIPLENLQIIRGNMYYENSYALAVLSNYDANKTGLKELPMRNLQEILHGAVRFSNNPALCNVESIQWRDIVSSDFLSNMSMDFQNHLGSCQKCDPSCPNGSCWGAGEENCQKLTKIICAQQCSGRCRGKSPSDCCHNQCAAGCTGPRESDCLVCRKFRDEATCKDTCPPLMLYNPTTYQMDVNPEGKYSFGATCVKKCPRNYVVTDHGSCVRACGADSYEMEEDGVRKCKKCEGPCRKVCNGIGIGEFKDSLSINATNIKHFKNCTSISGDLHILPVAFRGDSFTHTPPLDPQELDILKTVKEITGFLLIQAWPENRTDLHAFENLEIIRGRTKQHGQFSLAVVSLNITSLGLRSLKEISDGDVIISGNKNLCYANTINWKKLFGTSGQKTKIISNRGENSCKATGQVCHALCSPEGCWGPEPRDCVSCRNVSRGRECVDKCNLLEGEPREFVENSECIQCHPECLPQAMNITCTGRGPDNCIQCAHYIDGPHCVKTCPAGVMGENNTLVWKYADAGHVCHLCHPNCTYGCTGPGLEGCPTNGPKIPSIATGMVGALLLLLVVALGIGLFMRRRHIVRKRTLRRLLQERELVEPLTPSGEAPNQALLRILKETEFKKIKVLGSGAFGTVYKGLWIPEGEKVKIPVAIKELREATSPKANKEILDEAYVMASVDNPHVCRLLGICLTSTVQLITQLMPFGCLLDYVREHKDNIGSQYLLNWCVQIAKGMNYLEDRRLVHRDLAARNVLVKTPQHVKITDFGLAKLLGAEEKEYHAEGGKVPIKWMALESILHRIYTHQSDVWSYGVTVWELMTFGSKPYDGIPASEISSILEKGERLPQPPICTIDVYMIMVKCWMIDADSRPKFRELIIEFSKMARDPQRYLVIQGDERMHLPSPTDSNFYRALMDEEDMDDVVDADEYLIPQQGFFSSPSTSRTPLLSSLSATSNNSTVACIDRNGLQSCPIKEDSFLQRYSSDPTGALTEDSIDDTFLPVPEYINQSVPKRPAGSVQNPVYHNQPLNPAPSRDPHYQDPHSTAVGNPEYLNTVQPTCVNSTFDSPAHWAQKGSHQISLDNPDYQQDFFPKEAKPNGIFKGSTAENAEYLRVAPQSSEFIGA
Procedure: Immunoprecipitation for EGF-R Protein and Immunoblotting for Tyrosine Phosphorylation. Cells were serum-starved for 24 h and then stimulated with TGFα, H2O2, or the supernatant of activated neutrophils for 15 min. After stimulation, cells were lysed and incubated for 30 min in an orbital shaker at 4° C. To remove insoluble material, cell lysates were centrifuged at 14,000 rpm for 5 min at 4° C. Aliquots of supernatants containing equal amounts of protein were immunoprecipitated with anti-EGF receptor antibody (polyclonal, Ab4, Calbiochem) and 20 μl of protein A-agarose (Santa Cruz) for 2 h at 4° C. Precipitates were washed three times with 0.5 ml of lysis buffer, suspended in SDS sample buffer, and boiled for 5 min. Proteins were separated by SDS-PAGE in 8.0% acrylamide gel. The resulting gel was equilibrated in the transfer buffer: 25 mM Tris-HCl, 192 mM glycine, 20% (vol/vol) methanol, pH 8.3. The proteins were then transferred electrophoretically to nitrocellulose membranes (0.22 μm), blocked with 5% fat-free skimmed milk in PBS containing 0.05% Tween 20 overnight and then incubated with monoclonal anti-phosphotyrosine antibody (1:100,Santa Cruz) for 1 h. Bound antibody was visualized according to a standard protocol for the avidin-biotin-alkaline phosphatase complex method (ABC kit, Vector Laboratories).

| Compound | PAS-positive staining on incubation with mediator (NCI-H292 cells [1]) | MUC5 gene expression on incubation with mediator (NCI-H292 cells [2]) | epithelial production of mucous glycoconjugates (pathogen-free rats) | maximum response in MUC5AC synthesis relative to the response to TGFα (NCI-H292 cells [3]) | MUC5AC synthesis in NCI-H292 cells, stimulus alone (NCI-H292 cells [3]; H2O2 200 μM, cigarette smoke solution) | MUC5AC gene expression (NCI-H292 cells [4]) | EGF-R-specific tyrosine phosphorylation (EGFR) |
| --- | --- | --- | --- | --- | --- | --- | --- |
| EGF: recombinant human epidermal growth factor (Genzyme) | increased PAS-positive staining | clearly expressed at 24 h | had no effect |  |  |  |  |
| OO [H2O2, hydrogen peroxide] |  |  |  | half | caused MUC5AC synthesis | up-regulated | induced EGF-R-specific tyrosine phosphorylation |
